In US10174029B2, “Pyrimidine-2,4-diamine derivatives for treatment of cancer” (THOMAS HELLEDAYS STIFTELSE FOR MEDICINSK FORSKNING, priority 2012, dated 2019):
Counter-ions that a name gives are not always drawn.

Biological target: MTH1 (Homo sapiens, UniProt P36639)
Assay: MTH1 enzymatic assay and IC50 value determination (malachite green)
Assay type: biochemical
Details: MTH1 4.8 nM, dGTP 100 μM, 15 minutes at 22° C.
Protocol: MTH1 Enzymatic Assay and IC50 Value Determination
MTH1 catalyzes the hydrolysis of dGTP to dGMP and PPi. By coupling the reaction to pyrophosphatase added in excess PPi is converted to Pi that can be detected by using the malachite green assay reagent. Briefly, for IC50 value determination the compound to be analyzed is diluted in assay buffer in a 1:3 dilution series generating 12 different compound concentrations giving a final DMSO concentration of 1% in the assay well. MTH1 diluted in assay buffer (100 mM Tris-acetate, 40 mM NaCl, 10 mM magnesium acetate, 1 mM DTT and 0.005% Tween 20) fortified with E. coli pyrophosphatase (0.8 U/ml) is added to a final concentration of 4.8 nM. dGTP diluted in assay buffer is added to a final concentration of 100 μM. The reaction mixture is incubated with shaking for 15 minutes at 22° C. To 100 μl reaction mixture is 25 μl Malachite green assay regent (0.095% Malachite green in 17% H2SO4, 1.5% Ammonium molybdate, 0.17% Tween 20) added followed by incubation with shaking for 15 minutes at 22° C.
The absorbance of the assay plate is read at 630 nm using an EnVision Multilabel plate reader. The IC50 value is determined by fitting a dose response curve to the data points using nonlinear regression analysis and the equation Y=Bottom+(Top−Bottom)/(1+10^((Log IC50−X)*HillSlope)), where Y is the read absorbance at 630 nm and X is log [compound].

IC50 (group: less than 200 nM) [nM]	IC50 (group: between 2 μM and 10 μM) [nM]	SMILES
< 200	–	CNc1cc(-c2cc(C(C)C)ccc2OC)nc(N)n1 [Example 198, 6-[2-methoxy-5-(propan-2-yl)phenyl]-4-N-methylpyrimidine-2,4-diamine]
< 200	–	CNc1cc(-c2cc(Cl)ccc2OC)nc(N)n1 [Example 201, 6-(5-chloro-2-methoxyphenyl)-4-N-methylpyrimidine-2,4-diamine]
< 200	–	CNc1cc(-c2cc(F)ccc2C)nc(N)n1 [Example 202, 6-(5-fluoro-2-methylphenyl)-4-N-methylpyrimidine-2,4-diamine]
< 200	–	CNc1cc(-c2cc(OC)ccc2OC)nc(N)n1 [Example 203, 6-(2,5-dimethoxyphenyl)-4-N-methylpyrimidine-2,4-diamine]
< 200	–	CNc1cc(-c2cc(F)ccc2C(F)(F)F)nc(N)n1 [Example 208, 6-[5-fluoro-2-(trifluoromethyl)phenyl]-4-N-methylpyrimidine-2,4-diamine]
< 200	–	CNc1cc(-c2cc(Cl)ccc2Cl)nc(N)n1 [Example 209, 6-(2,5-dichlorophenyl)-4-N-methylpyrimidine-2,4-diamine]
< 200	–	CNc1cc(-c2cc(Cl)ccc2F)nc(N)n1 [Example 210, 6-(5-chloro-2-fluorophenyl)-4-N-methylpyrimidine-2,4-diamine]
< 200	–	CNc1cc(-c2cc(C#N)ccc2C)nc(N)n1 [Example 211, 3-[2-amino-6-(methylamino)pyrimidin-4-yl]-4-methylbenzonitrile]
< 200	–	CNc1cc(-c2cc(F)c(C)cc2Cl)nc(N)n1 [Example 213, 6-(2-chloro-5-fluoro-4-methylphenyl)-4-N-methylpyrimidine-2,4-diamine]
< 200	–	CNc1cc(-c2cc(C)c(F)cc2Cl)nc(N)n1 [Example 215, 6-(2-chloro-4-fluoro-5-methylphenyl)-4-N-methylpyrimidine-2,4-diamine]
< 200	–	Cc1ccc(Cl)cc1-c1cc(NC2CC2)nc(N)n1 [Example 219, 6-(5-chloro-2-methylphenyl)-4-N-cyclopropylpyrimidine-2,4-diamine]
< 200	–	CNc1cc(-c2cccc(C)c2Cl)nc(N)n1 [Example 226, 6-(2-chloro-3-methylphenyl)-4-N-methylpyrimidine-2,4-diamine]
< 200	–	CNc1cc(-c2ccc(OC)c(C)c2C)nc(N)n1 [Example 259, 6-(4-methoxy-2,3-dimethylphenyl)-4-N-methylpyrimidine-2,4-diamine]
< 200	–	CNc1cc(-c2ccc(F)c(C)c2C)nc(N)n1 [Example 260, 6-(4-fluoro-2,3-dimethylphenyl)-4-N-methylpyrimidine-2,4-diamine]

The next lines start with the compound.

SMILES	IC50 (group: less than 200 nM) [nM]	IC50 (group: between 2 μM and 10 μM) [nM]
Cc1ccc(Cl)cc1-c1cc(NC2CCC2)nc(N)n1 [Example 220, 6-(5-chloro-2-methylphenyl)-4-N-cyclobutylpyrimidine-2,4-diamine]	< 200	–
Cc1ccc(Cl)cc1-c1cc(NCCc2ccc(Cl)cc2)nc(N)n1 [Example 222, 6-(5-chloro-2-methylphenyl)-4-N-[2-(4-chlorophenyl)ethyl]pyrimidine-2,4-diamine]	< 200	–
Cc1cccc(-c2cc(NC3CC3)nc(N)n2)c1Cl [Example 227, 6-(2-chloro-3-methylphenyl)-4-N-cyclopropylpyrimidine-2,4-diamine]	< 200	–
Cc1cccc(-c2cc(NCCc3ccc(Cl)cc3)nc(N)n2)c1Cl [Example 228, 6-(2-chloro-3-methylphenyl)-4-N-[2-(4-chlorophenyl)ethyl]pyrimidine-2,4-diamine]	< 200	–
Nc1nc(NC2CC2)cc(-c2cccc3[nH]ccc23)n1 [Example 230, 4-N-cyclopropyl-6-(1H-indol-4-yl)pyrimidine-2,4-diamine]	< 200	–
Nc1nc(NCCc2ccc(Cl)cc2)cc(-c2cccc3[nH]ccc23)n1 [Example 231, 4-N-[2-(4-chlorophenyl)ethyl]-6-(1H-indol-4-yl)pyrimidine-2,4-diamine]	< 200	–
Nc1nc(NC2CC2)cc(-c2cccc3ncccc23)n1 [Example 232, 4-N-cyclopropyl-6-(quinolin-5-yl)pyrimidine-2,4-diamine]	< 200	–
Cc1cccc(-c2cc(NC3CCN(C(=O)OC(C)(C)C)CC3)nc(N)n2)c1C [Example 237, tert-Butyl 4-((2-amino-6-(2,3-dimethylphenyl)pyrimidin-4-yl)amino)piperidine-1-carboxylate]	–	2000 to 10000
Cc1c(Cl)cccc1-c1cc(NC2CC3CCC2C3)nc(N)n1 (stereo not drawn) [Example 244, 4-N-{bicyclo[2.2.1]heptan-2-yl}-6-(3-chloro-2-methylphenyl)pyrimidine-2,4-diamine]	< 200	–
CCNc1cc(-c2cccc(Cl)c2C)nc(N)n1 [Example 245, 6-(3-chloro-2-methylphenyl)-4-N-ethylpyrimidine-2,4-diamine]	< 200	–
Cc1c(Cl)cccc1-c1cc(NC(C)C)nc(N)n1 [Example 246, 6-(3-chloro-2-methylphenyl)-4-N-(propan-2-yl)pyrimidine-2,4-diamine]	< 200	–
Cc1ccc2[nH]c(C)c(CCNc3cc(-c4cccc(C)c4C)nc(N)n3)c2c1 [Example 249, 4-N-[2-(2,5-dimethyl-1H-indol-3-yl)ethyl]-6-(2,3-dimethylphenyl)pyrimidine-2,4-diamine]	< 200	–
Cc1cccc(-c2cc(NCc3ccc4cn[nH]c4c3)nc(N)n2)c1C [Example 252, 6-(2,3-dimethylphenyl)-4-N-(1H-indazol-6-ylmethyl)pyrimidine-2,4-diamine]	< 200	–
Cc1cccc(-c2cc(NCc3cnc(Cl)cn3)nc(N)n2)c1C [Example 254, 4-N-[(5-chloropyrazin-2-yl)methyl]-6-(2,3-dimethylphenyl)pyrimidine-2,4-diamine]	< 200	–
CNc1cc(-c2ccc(OCC3CCN(C(=O)OC(C)(C)C)CC3)c(COC)c2)nc(N)n1 [Example 256, tert-butyl 4-{4-[2-amino-6-(methylamino)pyrimidin-4-yl]-2-(methoxymethyl)phenoxymethyl}piperidine-1-carboxylate]	< 200	–
CNc1cc(-c2ccc(OCC3CCNCC3)c(COC)c2)nc(N)n1 [Example 257, 6-[3-(methoxymethyl)-4-(piperidin-4-ylmethoxy)phenyl]-4-N-methylpyrimidine-2,4-diamine hydrochloride]	< 200	–
Cc1ccccc1-c1cc(NCCc2ccc(Cl)cc2)nc(N)n1 [Example 264, 4-N-[2-(4-chlorophenyl)ethyl]-6-(2-methylphenyl)pyrimidine-2,4-diamine]	< 200	–
Nc1nc(NCCc2ccc(Cl)cc2)cc(-c2cccc3ncccc23)n1 [Example 266, 4-N-[2-(4-chlorophenyl)ethyl]-6-(quinolin-5-yl)pyrimidine-2,4-diamine]	< 200	–
Cc1cccc(-c2cc(NC3CC3c3ccc(Cl)cc3)nc(N)n2)c1C (stereo not drawn) [Example 267, 4-N-[2-(4-chlorophenyl)cyclopropyl]-6-(2,3-dimethylphenyl)pyrimidine-2,4-diamine]	< 200	–
Cc1cccc(-c2cc(NCCc3cccc(O)c3)nc(N)n2)c1C [Example 269, 3-(2-{[2-amino-6-(2,3-dimethylphenyl)pyrimidin-4-yl]amino}ethyl)phenol]	< 200	–
Cc1cccc(-c2cc(NCCNC(=O)OCc3ccccc3)nc(N)n2)c1C [Example 273, benzyl N-(2-{[2-amino-6-(2,3-dimethylphenyl)pyrimidin-4-yl]amino}ethyl)-carbamate]	< 200	–
Cc1cccc(-c2cc(NCCCNC(=O)OC(C)(C)C)nc(N)n2)c1C [Example 275, tert-butyl N-(3-{[2-amino-6-(2,3-dimethylphenyl)pyrimidin-4-yl]amino}propyl)-carbamate]	< 200	–
Cc1cc(CCCNc2cc(-c3cccc(C)c3C)nc(N)n2)n[nH]1 [Example 276, 6-(2,3-dimethylphenyl)-4-N-[3-(5-methyl-1H-pyrazol-3-yl)propyl]pyrimidine-2,4-diamine]	< 200	–
Cc1cccc(-c2cc(NCCC(=O)N3CCOCC3)nc(N)n2)c1C [Example 277, 3-{[2-amino-6-(2,3-dimethylphenyl)pyrimidin-4-yl]amino}-1-(morpholin-4-yl)propan-1-one]	–	2000 to 10000
Cc1cccc(-c2cc(N[C@@H]3CN4CCC3CC4)nc(N)n2)c1C [Example 281, 4-N-[(3S)-1-azabicyclo[2.2.2]octan-3-yl]-6-(2,3-dimethylphenyl)pyrimidine-2,4-diamine]	–	2000 to 10000
Cc1cccc(-c2cc(NCC3CCCN3C(=O)OC(C)(C)C)nc(N)n2)c1C (stereo not drawn) [Example 282, tert-butyl 2-({[2-amino-6-(2,3-dimethylphenyl)pyrimidin-4-yl]amino}methyl)-pyrrolidine-1-carboxylate]	< 200	–
Cc1ccc(S(=O)(=O)N2CCOCC2)cc1-c1cc(NCCCN2CCCC2=O)nc(N)n1 [Example 289, 1-[3-({2-amino-6-[2-methyl-5-(morpholine-4-sulfonyl)phenyl]pyrimidin-4-yl}amino)propyl]pyrrolidin-2-one]	–	2000 to 10000
Cc1cccc(-c2cc(NCC3(c4ccc(Cl)cc4)CC3)nc(N)n2)c1C [Example 295, 4-N-{[1-(4-chlorophenyl)cyclopropyl]methyl}-6-(2,3-dimethylphenyl)pyrimidine-2,4-diamine]	< 200	–
